Experimental data taken from patent publication US20200276256A1, “SKIN CARE COMPOSITION” (ISN Pharma SP.Z.O.O., priority 2017, published 2020).

What was measured:
[1] = test system: HaCaT cell line infected with HHV-1; test: Vitality VB-48 Assay, HHV-1 infected cells; format: cell-based, human; conditions: Control + acyclovir, mean
Procedure: Vitality VB-48 Assay (NucleoCounter NC-3000) was used to determine the percentage estimation of keratinocytes of varied degrees of viability after 24 h incubation with Kalanchoe daigremontiana extract.
An HHV-1 suspension was added to HaCaT cell line and incubated for 1 hour to enable adsorption of virus to cells. Afterwards, the cells were incubated with a plant extract of the respective dilution for 24 hrs to assess the viability of the keratinocytes with HHV-1 incubated with the respective dilutions of the extract of the invention as compared with Acyclovir.

HHV-1 = test: Confocal microscopy, direct immunofluorescence staining of infected HaCaT cells; format: cell-based, Human herpesvirus 1; conditions: acyclovir added to infected HaCaT; 48 hrs after infection; FIG. 19
From the text: Confocal microscopy (microscope magnification—60×, digital zoom) was used to view the cell structure status and positioning 48 hrs after infection with HHV-1 (FIG. 18). The method of direct immunofluorescence staining wherein the nucleus—blue (A), viral antigen —green (B), actin—red (C), nucleus/actin (D) helps further understand the structural changes in the cells. The same confocal microscopy technique was used to view the cell structure status and positioning after HHV-1 infection and treatment with Kalanchoe daigremontiana. As before the method of direct immunofluorescence staining is nucleus—blue (A), viral antigen—green (B), actin—red (C), nucleus/actin (D).

[2] = test system: HaCaT cell line infected with HHV-1; test: Cell Count Assay (NucleoCounter NC-3000), HHV-1 infected cells; format: cell-based, human; conditions: Control + acyclovir, HHV-1 infected HaCaT
Procedure: Next, cell viability additionally in the presence of the Herpes virus was investigated with a Cell Count Assay (NucleoCounter NC-3000). An HHV-1 suspension was added to HaCaT cell line and incubated for 1 hour to enable adsorption of virus to cells; the cells were then incubated with the extract, in the respective dilution ratios, for 24 hrs.

## Nc1nc2c(ncn2COCCO)c(=O)[nH]1 [acyclovir]
[1]
  dead cells %: 77.1%
  healthy cells %: 3.27%
  lower viability cells %: 19.51%
HHV-1
  amount of viral antigen: lower amount of viral antigen
[2]
  All cells Cell %: 79.67%
  All cells Mean intensity: 160070.3
  All cells Number of cells: 7648
  Dead cells Cell %: 24.05%
  Dead cells Mean intensity: 152872.9
  Dead cells Number of cells: 5683
  Viability [%]: 25.7%
[2]; listed as Acyclovir
  Viability [%]: 25%
